Assays:
[1] = system: Nucleic Acid; assay: Binding affinity to poly(dA).poly(dT) DNA assessed as change in melting temperature; assay type: nucleic-acid assay
[2] = target: Kappa-type opioid receptor (Rattus norvegicus, UniProt P34975); assay: Binding affinity to kappa opioid receptor in rat brain membrane; assay type: cell membranes
[3] = system: Nucleic Acid; assay: Binding affinity to poly(dA).poly(dT) duplex DNA assessed as ratio of KA to KB by ESI-MS analysis; assay type: nucleic-acid assay
[4] = system: Nucleic Acid; assay: Binding affinity to poly(A).poly(U) RNA assessed as change in melting temperature; assay type: nucleic-acid assay
[5] = target: Delta-type opioid receptor (Rattus norvegicus, UniProt P33533); assay: Binding affinity to delta opioid receptor in rat brain membrane; assay type: cell membranes
Delta-type opioid receptor, sequence (P33533 whole entry): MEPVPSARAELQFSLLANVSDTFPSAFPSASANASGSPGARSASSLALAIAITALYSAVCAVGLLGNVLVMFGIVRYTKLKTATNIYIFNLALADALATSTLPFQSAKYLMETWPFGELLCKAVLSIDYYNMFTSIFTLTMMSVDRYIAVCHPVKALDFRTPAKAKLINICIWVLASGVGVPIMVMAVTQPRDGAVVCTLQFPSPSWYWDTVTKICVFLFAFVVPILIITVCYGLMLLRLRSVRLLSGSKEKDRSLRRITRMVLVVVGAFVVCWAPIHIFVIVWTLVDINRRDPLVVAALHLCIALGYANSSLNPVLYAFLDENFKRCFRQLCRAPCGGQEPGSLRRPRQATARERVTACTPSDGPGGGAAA

Kappa-type opioid receptor, sequence (P34975 whole entry): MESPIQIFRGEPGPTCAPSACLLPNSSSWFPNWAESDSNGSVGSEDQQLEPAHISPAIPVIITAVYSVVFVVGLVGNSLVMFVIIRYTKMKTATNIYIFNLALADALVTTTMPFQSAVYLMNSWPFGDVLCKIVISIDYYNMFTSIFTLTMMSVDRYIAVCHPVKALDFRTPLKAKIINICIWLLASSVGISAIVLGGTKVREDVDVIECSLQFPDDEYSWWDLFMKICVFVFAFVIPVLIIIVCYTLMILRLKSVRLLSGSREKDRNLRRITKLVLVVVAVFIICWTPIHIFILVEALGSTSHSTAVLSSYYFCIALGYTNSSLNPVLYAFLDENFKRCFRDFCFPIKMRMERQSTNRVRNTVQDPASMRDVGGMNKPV

Work on `COc1cccc2c1C(=O)c1c(O)c3c(c(O)c1C2=O)C[C@@](O)(C(=O)CO)C[C@@H]3O[C@H]1C[C@H](N)[C@H](O)[C@H](C)O1` yielded a ΔTm [1] of 13 °C.
`Oc1ccc2c3c1O[C@H]1c4[nH]c5ccccc5c4C[C@@]4(O)[C@@H](C2)N(CC2CC2)CC[C@]314` [NALTRINDOLE] was tested, and the Ki [2] was 30 nM.
With `CCOc1ccc(-c2nc3cc(-c4nc5cc(N6CCN(C)CC6)ccc5[nH]4)ccc3[nH]2)cc1` the Ratio [3] was 3.7.
For `COc1cc2cc3c4cc(OC)c(OC)cc4cc[n+]3c(C)c2cc1OC`, the ΔTm [1] was 18 °C.
`O=C1c2c(O)ccc(O)c2C(=O)c2c(NCCNCCO)ccc(NCCNCCO)c21` showed a ΔTm [1] of 23 °C.
With `CC[n+]1c(-c2ccccc2)c2cc(N)ccc2c2ccc(N)cc21` the ΔTm [4] was 17 °C.
Work on `Cn1cc(NC(=O)c2cc(NC(=O)CNC(=N)N)cn2C)cc1C(=O)NCCC(=N)N` yielded a Ratio [3] of 0.28.
`Cn1cc(NC(=O)c2cc(NC(=O)c3cc(NC=O)cn3C)cn2C)cc1C(=O)NCCC(=N)N` gave a Ratio [3] of 4.4.
For `CN1CC[C@]23c4c5ccc(O)c4O[C@H]2c2[nH]c4ccccc4c2C[C@@]3(O)[C@H]1C5` [OXYMORPHINDOLE], the Ki [2] was 2170 nM and the Ki [5] was 0.8 nM.
With `N=C(N)c1ccc(/N=N/Nc2ccc(C(=N)N)cc2)cc1` the Ratio [3] was 0.32.
`CN1CCN(c2ccc3[nH]c(-c4ccc5[nH]c(-c6ccc(O)cc6)nc5c4)nc3c2)CC1` showed a Ratio [3] of 2.4.

Reference: ChEMBL document CHEMBL1152837, “Ligand binding to nucleic acids and proteins: Does selectivity increase with strength?” (Eur J Med Chem, 2008)
